Source: patent publication US12622910B2, “Inhibitors of Bruton's tyrosine kinase and methods of their use” (Janssen Pharmaceutica NV, priority 2021, dated 2026)

Experiments:
A3 (h) = A3 (h) (Homo sapiens, UniProt P0DMS8); test: Receptor panel, Study 1; assay type: binding
Description: (§1) RESULTS AND DISCUSSION—Selectivity—The compound of Formula (III) was evaluated in three selectivity panels to assess the potential for off-target pharmacology (Table 8). […] The kinase off-target profile of The compound of Formula (III) was assessed in a full human wild-type panel using radiometric kinase activity assays (KinaseProfiler™ and IC50Profiler™; Eurofins Scientific) (Table 9; FIG. 23). The compound of Formula (III) inhibited 4/278 kinases >50% at 1 micromolar, identifying BTK and the three other kinases having analogous Cys residues with the potential for covalent inhibition (BMX, TEC, BLK). […]. The cellular kinase selectivity of The compound of Formula (III) was established in native Ramos B cell kinome assays (KiNativ™; ActivX) confirmed BTK as the primary target with inhibition of BLK and TEC inhibition detected (Table 10).

B2 (h) = B2 (h) (Homo sapiens, UniProt P30411); test: Receptor panel, Study 1; assay type: binding
Description: as §1

GAL2 (h) = GAL2 (h) (Homo sapiens, UniProt O43603); test: Receptor panel, Study 1; assay type: binding
Description: as §1

K^+V channel = test: Receptor panel, Study 1; assay type: binding
Description: as §1

NE transporter (h) = NE transporter (h) (Homo sapiens, UniProt P23975); test: Receptor panel, Study 1; assay type: binding
Description: as §1

NK2 (h) = NK2 (h) (Homo sapiens, UniProt P21452); test: Receptor panel, Study 1; assay type: binding
Description: as §1

alpha 1 = test: Receptor panel, Study 1; assay type: binding
Description: as §1

alpha 2 = test: Receptor panel, Study 1; assay type: binding
Description: as §1

[1] = Protein binding in RPMI culture media containing 10% FBS; assay type: in vitro ADME; details: bovine, read-out: % free in RPMI culture media containing 10% FBS
[2] = Metabolic stability in liver microsomes; assay type: in vitro ADME, human
Description: Additional Data on Preclinical PK Profile—Protein binding of the compound of Formula (III) was studied using an equilibrium dialysis method in plasma from human, cynomolgus monkey, beagle dog, Sprague Dawley rat, CD-1 mouse, and guinea pig at 0.25, 2.5, and 25 μM. […] In human and monkey, the plasma protein binding was concentration dependent. […] Free fraction of the compound of Formula (III) in liver microsomes from various species ranged from 75.1% to 87.9% at 0.25 mg/mL and from 58.9% to 86.5% at 1.0 mg/mL (Table 17). […] In hepatocytes, the compound of Formula (III) turnover followed a similar trend, with T1/2 ranging from 75.3 minutes in monkey to 278.1 minutes in human.

[3] = Intestinal microsomal stability; assay type: in vitro ADME; details: intestinal microsomes
Excerpt: In human hepatocytes, the compound of Formula (III) is metabolized by CYP3A through mono-oxidations and N-dealkylations and by GSH conjugation to its acrylamide functionality. It bears moderate metabolic stability in hepatocytes across species and is slowly metabolized in human intestinal microsomes fortified with NADPH.

CYP1A = test: CYP induction in plated human hepatocytes, phenacetin probe; assay type: in vitro ADME; details: 48 hours
[4] = Preclinical PK, oral and IV; details: dog, in vivo
[5] = test system: IL-6 secretion, ABC-DLBCL OCI-LY-10 cells; test: IL-6 secretion by OCI-LY-10 cells (MesoScale); assay type: cell-based; details: Homo sapiens, OCI-Ly10; 6 independent experiments; read-out: IC50, IL-6 secretion (mean±SEM)
Description: In Vitro Activity in DLBCL Cell Lines—NFκB signaling regulates the secretion of multiple cytokines, including interleukin (IL)-6 and IL-10. Secretion of IL-6 and -10 by ABC-DLBCL OCI-LY-10 cells was measured using a MesoScale assay. […] To determine the anti-proliferative activity of the compound of formula (III), several ABC-DLBCL cell lines—OCI-LY-3, OCI-LY-10, TMD8, and HBL-1—were treated for 8 days. […] The OCI-LY-3 cell line, which harbors a CARD11 mutation downstream of BTK in the NF-κB signaling pathway, was completely insensitive to the compound of Formula (III) up to 2 μM. In 2 experiments, OCI-LY-3 cells were insensitive to the compound of Formula (III) at all concentrations up to 10 μM.

human IL-10 = test: Circulating human IL-10 in serum of NSG mice with OCI-LY10 tumors; assay type: in vivo
Excerpt: FIG. 18 depicts circulating human IL-10 cytokine serum levels of mice treated with the compound of Formula (III). IL-10 cytokine levels are graphed as % normalized to vehicle control IL-10 levels ±SEM. Female NSG mice were implanted SC with OCI-LY10 cells on the right flank on Day 0. After tumors were established 39 days post implantation, mice were randomized into experimental groups and dosed orally with a single dose (n=5/dose level/time point). Serum samples were collected 2, 4, 8, 12, 16 and 24 hours after compound administration.
In Vivo Efficacy in ABC-DLBCL Xenograft and PDX Mouse Models of Lymphoma-To evaluate the effect of the compound of Formula (III) on NFκB signaling in vivo, we analyzed circulating human IL-10 levels in serum of NSG mice implanted with OCI-LY10 DLBCL tumors treated with 0, 1, 3, 10, 30 and 100 mg/kg compound of Formula (III) at 2, 4, 8, 12, 16 and 24 hours after single dose administration. Human IL-10 levels dropped to around 50% of vehicle control 2 hours after dosing, lowering even further after 4 hours to below 20%, 10% and 5% of vehicle control IL-10 levels in 10 mg/kg, 30 mg/kg and 100 mg/kg compound of Formula (III) treatment groups, respectively, and remaining low up to 12 hours. Some rebound to 23% of vehicle control levels for 30 mg/kg and 100 mg/kg and to 39% for the 10 mg/kg dosing group are observed 16 hours after compound administration, while IL-10 levels normalize after 24 hours (FIG. 18).

Sequence of B2 (h) (P30411 whole entry): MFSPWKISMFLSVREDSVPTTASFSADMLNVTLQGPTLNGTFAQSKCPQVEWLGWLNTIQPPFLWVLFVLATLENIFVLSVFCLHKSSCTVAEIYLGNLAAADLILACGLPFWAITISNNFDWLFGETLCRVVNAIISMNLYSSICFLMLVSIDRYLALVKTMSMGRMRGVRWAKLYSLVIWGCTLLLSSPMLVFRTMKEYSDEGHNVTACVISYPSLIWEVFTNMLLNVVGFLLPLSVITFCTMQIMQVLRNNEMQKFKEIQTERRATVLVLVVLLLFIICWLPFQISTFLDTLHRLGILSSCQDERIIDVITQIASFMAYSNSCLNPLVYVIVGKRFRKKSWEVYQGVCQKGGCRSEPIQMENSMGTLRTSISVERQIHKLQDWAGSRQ
Sequence of A3 (h) (P0DMS8 whole entry): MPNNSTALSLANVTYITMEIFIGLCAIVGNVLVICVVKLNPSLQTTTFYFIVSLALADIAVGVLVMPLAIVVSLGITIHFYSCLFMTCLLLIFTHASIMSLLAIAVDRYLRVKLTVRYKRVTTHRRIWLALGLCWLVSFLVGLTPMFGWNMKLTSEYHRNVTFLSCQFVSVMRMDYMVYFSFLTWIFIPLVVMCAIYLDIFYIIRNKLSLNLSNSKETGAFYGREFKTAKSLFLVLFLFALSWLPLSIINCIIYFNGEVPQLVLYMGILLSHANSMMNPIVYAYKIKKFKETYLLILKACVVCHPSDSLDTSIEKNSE
Sequence of GAL2 (h) (O43603 whole entry): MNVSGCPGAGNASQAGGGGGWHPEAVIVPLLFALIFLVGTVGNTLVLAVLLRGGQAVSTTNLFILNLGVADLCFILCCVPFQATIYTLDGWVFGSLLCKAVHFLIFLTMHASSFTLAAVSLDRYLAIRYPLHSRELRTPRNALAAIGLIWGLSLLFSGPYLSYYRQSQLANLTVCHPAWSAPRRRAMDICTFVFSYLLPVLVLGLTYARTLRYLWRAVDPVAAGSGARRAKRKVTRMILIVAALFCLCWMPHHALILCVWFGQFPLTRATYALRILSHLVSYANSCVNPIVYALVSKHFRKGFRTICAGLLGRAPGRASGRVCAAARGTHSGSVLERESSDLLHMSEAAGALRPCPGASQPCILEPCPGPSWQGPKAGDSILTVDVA
Sequence of NK2 (h) (P21452 whole entry): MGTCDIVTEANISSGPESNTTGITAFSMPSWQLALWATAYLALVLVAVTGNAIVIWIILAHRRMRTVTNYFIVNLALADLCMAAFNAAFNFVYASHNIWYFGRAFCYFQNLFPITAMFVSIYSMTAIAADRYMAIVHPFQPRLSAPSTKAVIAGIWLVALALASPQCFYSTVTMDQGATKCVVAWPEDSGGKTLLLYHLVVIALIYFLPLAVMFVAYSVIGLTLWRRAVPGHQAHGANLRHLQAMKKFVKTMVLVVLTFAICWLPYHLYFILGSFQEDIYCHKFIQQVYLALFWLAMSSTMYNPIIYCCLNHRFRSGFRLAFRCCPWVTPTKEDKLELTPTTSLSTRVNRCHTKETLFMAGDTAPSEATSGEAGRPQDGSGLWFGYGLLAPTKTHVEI
Sequence of NE transporter (h) (P23975 whole entry): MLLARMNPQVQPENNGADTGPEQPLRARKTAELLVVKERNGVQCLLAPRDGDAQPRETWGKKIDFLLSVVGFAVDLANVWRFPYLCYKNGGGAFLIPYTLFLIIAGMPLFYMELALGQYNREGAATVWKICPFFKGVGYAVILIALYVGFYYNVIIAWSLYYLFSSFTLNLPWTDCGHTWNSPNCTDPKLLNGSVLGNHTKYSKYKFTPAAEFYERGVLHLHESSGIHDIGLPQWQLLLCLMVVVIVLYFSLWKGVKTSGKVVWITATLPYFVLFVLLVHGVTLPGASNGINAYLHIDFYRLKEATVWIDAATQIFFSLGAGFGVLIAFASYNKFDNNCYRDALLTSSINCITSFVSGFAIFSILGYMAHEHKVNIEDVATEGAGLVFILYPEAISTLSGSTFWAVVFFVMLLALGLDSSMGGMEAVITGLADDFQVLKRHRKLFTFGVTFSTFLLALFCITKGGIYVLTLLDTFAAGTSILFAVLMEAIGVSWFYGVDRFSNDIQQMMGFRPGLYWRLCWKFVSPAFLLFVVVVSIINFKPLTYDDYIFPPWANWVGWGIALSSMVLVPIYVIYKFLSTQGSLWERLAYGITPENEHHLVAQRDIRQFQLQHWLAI

Question: Which inhibition at 10 µM (A3 (h)) does the source give for `C=CC(=O)N[C@H]1CCC[C@H]1NC(=O)c1sc2nccc3c2c1NC(=O)N3c1cnc(CC(C)C)cc1C` (atropisomer, axis not shown) [compound of Formula (III), N-((1R,2S)-2-Acrylamidocyclopentyl)-5-(S)-(6-isobutyl-4-methylpyridin-3-yl)-4-oxo-4,5-dihydro-3H-1-thia-3,5,8-triazaacenaphthylene-2-carboxamide] here?
Answer: < 10%

Question: What about the inhibition at 10 µM (B2 (h)) of the same compound?
Answer: < 10%

Question: What about the inhibition at 10 µM (GAL2 (h)) of the same compound?
Answer: < 10%

Question: And the “% Inhibition at 10 μM” value (K^+V channel)?
Answer: 12.2%

Question: What about the inhibition at 10 µM (NE transporter (h)) of the same compound?
Answer: < 10%

Question: What about the inhibition at 10 µM (NK2 (h)) of the same compound?
Answer: 16%

Question: What about the “% Inhibition at 10 μM” value (alpha 1) of the same compound?
Answer: — (no inhibition observed)

Question: And the “% Inhibition at 10 μM” value (alpha 2)?
Answer: — (no inhibition observed)

Question: What about the fraction unbound at 1 μM [1] of the same compound?
Answer: 0.317

Question: What about the “Extraction Ratio, liver microsomes” value ([2]; Human) of the same compound?
Answer: 0.63

Question: What about the microsomal CLint ([2]; human, liver microsomes) of the same compound?
Answer: 31.1 µL/min/mg

Question: And the half-life ([2]; human, liver microsomes, read-out: T1/2, liver microsomes)?
Answer: 22.3 min

Question: What about the microsomal CLint ([3]; Sprague Dawley, rat) of the same compound?
Answer: < 3.9 µL/min/mg

Question: And the microsomal CLint ([3]; beagle, dog)?
Answer: < 3.9 µL/min/mg

Question: What about the microsomal CLint ([3]; human) of the same compound?
Answer: 14.1 µL/min/mg

Question: What about the “change in CYP1A enzyme activity” value (CYP1A; 1 μM) of the same compound?
Answer: 0.2%

Question: What about the “change in CYP1A enzyme activity” value (CYP1A; 10 μM) of the same compound?
Answer: 1.0%

Question: What about the clearance ([4]; iv) of the same compound?
Answer: 11 ± 3 mL/min/kg

Question: What about the half-life ([4]; iv, read-out: IV T1/2 (converted)) of the same compound?
Answer: 66 ± 6 min

Question: What about the Vd ([4]; iv, read-out: Vss) of the same compound?
Answer: 0.8 ± 0.2 L/kg

Question: What about the Cmax ([4]; oral) of the same compound?
Answer: 890 ± 286 ng/mL

Question: And the Tmax ([4]; oral)?
Answer: 48 ± 18 min

Question: What about the AUC(0-inf) ([4]; oral, read-out: Oral AUCinf) of the same compound?
Answer: 1960 ± 421 ng·h/mL

Question: And the IC50 [5]?
Answer: 16 ± 3 nM

Question: And the “human IL-10, % of vehicle control” value (human IL-10; 10 mg/kg, 4 hours)?
Answer: below 20%

Question: And the “human IL-10, % of vehicle control” value (human IL-10; 10 mg/kg, 16 hours)?
Answer: 39%

Question: And the “human IL-10, % of vehicle control” value (human IL-10; 30 mg/kg, 4 hours)?
Answer: < 10%

Question: What about the “human IL-10, % of vehicle control” value (human IL-10; 30 mg/kg, 16 hours) of the same compound?
Answer: 23%

Question: And the “human IL-10, % of vehicle control” value (human IL-10; 100 mg/kg, 4 hours)?
Answer: < 5%

Question: And the “human IL-10, % of vehicle control” value (human IL-10; 100 mg/kg, 16 hours)?
Answer: 23%

Question: What about the “human IL-10, % of vehicle control” value (human IL-10; 2 hours after single oral dose) of the same compound?
Answer: around 50%
